Source: patent US12331046B2, “CTPS1 inhibitors and uses thereof” (Nimbus Clotho, Inc., priority 2020, dated 2025)

Molecular target: human CTPS1 (Homo sapiens (Human), UniProt P17812)
Experiment: hCTPS1 biochemical assay (ADP-Glo)
Conditions: hCTPS1 25 nM, ATP 120 uM, UTP 160 uM, GTP 60 uM, L-Glutamine 100 uM, 25 degrees C

human CTPS1, sequence (P17812 whole entry): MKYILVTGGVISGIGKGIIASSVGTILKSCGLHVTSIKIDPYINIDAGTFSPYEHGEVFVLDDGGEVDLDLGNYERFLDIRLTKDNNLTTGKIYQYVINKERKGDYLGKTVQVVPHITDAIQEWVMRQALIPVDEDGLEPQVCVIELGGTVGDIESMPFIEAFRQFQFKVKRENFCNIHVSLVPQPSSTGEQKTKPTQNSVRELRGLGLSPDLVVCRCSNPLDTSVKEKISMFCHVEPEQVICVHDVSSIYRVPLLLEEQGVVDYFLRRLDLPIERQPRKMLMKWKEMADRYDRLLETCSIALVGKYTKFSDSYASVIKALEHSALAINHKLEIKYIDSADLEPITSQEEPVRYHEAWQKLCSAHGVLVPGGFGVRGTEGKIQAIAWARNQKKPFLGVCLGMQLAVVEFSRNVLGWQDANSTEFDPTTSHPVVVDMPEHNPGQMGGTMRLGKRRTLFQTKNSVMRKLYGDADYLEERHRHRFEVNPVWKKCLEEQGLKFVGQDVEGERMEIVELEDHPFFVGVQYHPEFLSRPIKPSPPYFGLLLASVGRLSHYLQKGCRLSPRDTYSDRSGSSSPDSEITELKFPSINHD

| Structure (SMILES) | IC50 [nM] |
| --- | --- |
| CCOc1cncc(-c2cnc(C(=O)N[C@@H](CN3[C@@H]4COC[C@H]3C4)c3cc(NS(=O)(=O)C4CC4)ccn3)s2)n1 [I-114] | < 100 |
| O=C(NCc1cc(NS(=O)(=O)C2CC2)ccn1)c1ncc(-c2cnn3cc(Cl)ccc23)s1 [I-202] | 100 to 1000 |
| CCOc1cncc(-c2ccc(C(=O)NCc3cc(NS(=O)(=O)C4CC4)ccn3)cc2)n1 [I-15, N-((4-(cyclopropanesulfonamido)pyridin-2-yl)methyl)-4-(6-ethoxypyrazin-2-yl) benzamide] | < 100 |
| O=C(NC1(c2csc(NS(=O)(=O)C3CC3)n2)CC1)c1ccc2c[n+]([O-])ccc2c1 [I-11, 6-(1-(2-(cyclopropanesulfonamido)thiazol-4-yl)cyclopropylcarbamoyl)isoquinoline 2-oxide] | ≥ 1000 |
| O=C(NCc1cc(NS(=O)(=O)C2CC2)ccn1)c1ncc(-c2cnn3cccc3c2)s1 [I-200, N-((4-(cyclopropanesulfonamido)pyridin-2-yl)methyl)-5-(pyrrolo[1,2-b]pyridazin-3-yl)thiazole-2-carboxamide] | 100 to 1000 |
| CCOc1cncc(-c2cnc(C(=O)N[C@H](CCN(C)C)c3c(F)ccc(NS(=O)(=O)C4CC4)c3F)s2)n1 (single isomer, unassigned) [I-124] | ≥ 1000 |
| CCOc1cncc(-c2ccc(NC(=O)C(NC(=O)CCOCCOCCNC(=O)OC(C)(C)C)c3csc(NS(=O)(=O)C4CC4)n3)cc2)n1 (stereo not shown) [Z-8, tert-butyl 2-(2-(3-(1-(2-(cyclopropanesulfonamido)thiazol-4-yl)-2-(4-(6-ethoxypyrazin-2-yl)phenylamino)-2-oxoethylamino)-3-oxopropoxy)ethoxy)ethylcarbamate] | < 100 |
| CCOc1cncc(-c2ccc(C(=O)N[C@H](CC)c3cc(NS(=O)(=O)C4CC4)ccn3)c(F)c2)n1 [I-72] | < 100 |
| CCOc1cncc(-c2ccc(NC(=O)Cc3cc(NS(=O)(=O)C4CC4)ccn3)nc2)n1 [I-40, 2-(4-(cyclopropanesulfonamido)pyridin-2-yl)-N-(5-(6-ethoxypyrazin-2-yl)pyridin-2-yl)acetamide] | < 100 |
| CCOc1cncc(-c2ccc(NC(=O)C(C)(C)n3ccc(NS(=O)(=O)C4CC4)n3)nc2)n1 [I-19, 2-(3-(cyclopropanesulfonamido)-1H-pyrazol-1-yl)-N-(5-(6-ethoxypyrazin-2-yl)pyridin-2-yl)-2-methylpropanamide] | 100 to 1000 |
| CCOc1cncc(-c2ccc3c(c2)CN(C2(c4csc(NS(=O)(=O)C5CC5)n4)CC2)C3=O)n1 [I-13, N-(4-(1-(5-(6-ethoxypyrazin-2-yl)-1-oxoisoindolin-2-yl)cyclopropyl)thiazol-2-yl)cyclopropanesulfonamide] | 100 to 1000 |
| Cc1cc2c(=O)[nH]c3ccc(C(=O)NCc4cc(NS(=O)(=O)C5CC5)ccn4)cc3n2c1 [I-162] | 100 to 1000 |
| O=C(NC1(c2csc(NS(=O)(=O)C3CC3)n2)CC1)c1ccc2cnccc2c1 [I-4, N-(1-(2-(cyclopropanesulfonamido)thiazol-4-yl)cyclopropyl)isoquinoline-6-carboxamide] | ≥ 1000 |
| CCOc1cncc(-c2ccc(NC(=O)Cc3cc(NS(=O)(=O)C4CC4)ccn3)cc2)n1 [I-35] | < 100 |
| CCc1nc2ccc(C(=O)NCc3cc(NS(=O)(=O)C4CC4)ccn3)cc2[nH]c1=O [I-180, N-((4-(cyclopropanesulfonamido)pyridin-2-yl)methyl)-2-ethyl-3-oxo-3,4-dihydroquinoxaline-6-carboxamide] | ≥ 1000 |
| O=C(NCc1cc(NS(=O)(=O)C2CC2)ccn1)c1ncc(-c2cnc3[nH]cc(CC(F)F)c3n2)s1 [I-215] | < 100 |
| CCOc1cncc(-n2cc(C(=O)NCc3cc(NS(=O)(=O)C4CC4)ccn3)cn2)n1 [I-244] | 100 to 1000 |
| CCOc1cncc(-c2cnc(C(=O)NC(CCN(C)C)c3c(F)ccc(NS(=O)(=O)C4CC4)c3F)s2)n1 (stereo not shown) [I-123, N-[1-(3-cyclopropanesulfonamido-2,6-difluorophenyl)-3-(dimethylamino)propyl]-5-(6-ethoxypyrazin-2-yl)-1,3-thiazole-2-carboxamide] | ≥ 1000 |
| CCOc1cncc(-c2ccc(C(=O)NCc3nsc(NS(=O)(=O)C4CC4)n3)cc2)n1 [I-48, N-((5-(cyclopropanesulfonamido)-1,2,4-thiadiazol-3-yl)methyl)-4-(6-ethoxypyrazin-2-yl)benzamide] | < 100 |
| CCOc1cncc(-c2ncc(C(=O)NCc3cccc(NS(=O)(=O)C(F)F)c3)s2)n1 [I-62, N-[[3-(difluoromethanesulfonamido)phenyl]methyl]-2-(6-ethoxypyrazin-2-yl)-1,3-thiazole-5-carboxamide] | < 100 |

Now from value to compound:

| IC50 [nM] | Structure (SMILES) |
| --- | --- |
| < 100 | CCOc1cncc(-c2cnc(C(=O)NC(CN3CCOCC3)c3cc(NS(=O)(=O)C4CC4)ccn3)s2)n1 (stereo not shown) [I-245] |
| < 100 | CCOc1cncc(-c2cnc(C(=O)N[C@@H](CCCN(C)C)c3cc(NS(=O)(=O)C4CC4)ccn3)s2)n1 [I-155, (S)—N-(1-(4-(cyclopropanesulfonamido)pyridin-2-yl)-4-(dimethylamino)butyl)-5-(6-ethoxypyrazin-2-yl)thiazole-2-carboxamide] |
| 100 to 1000 | CCOc1cncc(-c2cnc(C(=O)N3CCNC[C@H]3c3ccnc(NS(=O)(=O)C4CC4)n3)s2)n1 [I-168, (S)—N-(4-(1-(5-(6-ethoxypyrazin-2-yl)thiazole-2-carbonyl)piperazin-2-yl)pyrimidin-2-yl)cyclopropanesulfonamide] |
| < 100 | CCOc1cncc(-c2cnc(C(=O)N[C@@H](CC)c3cc(NS(=O)(=O)C4CC4)ccn3)s2)n1 [I-278] |
| < 100 | CCOc1cncc(-c2cnc(C(=O)N3CCC[C@@H]3c3cccc(NS(=O)(=O)C(F)F)c3)s2)n1 [I-70, N-[3-[(2R)-1-[5-(6-ethoxypyrazin-2-yl)-1,3-thiazole-2-carbonyl]pyrrolidin-2-yl]phenyl]-1,1-difluoromethanesulfonamide] |
| < 100 | CCOc1cncc(-c2cnc(C(=O)N[C@H](CN3[C@H](C)COC[C@@H]3C)c3cc(NS(=O)(=O)C4CC4)ccn3)s2)n1 (single isomer, unassigned) [I-110] |
| < 100 | CCOc1cncc(-c2cnc(C(=O)NC(CCN(C)C)c3cccc(NS(=O)(=O)C4CC4)c3)s2)n1 (stereo not shown) [I-152, N-(1-(3-(cyclopropanesulfonamido)phenyl)-3-(dimethylamino)propyl)-5-(6-ethoxypyrazin-2-yl)thiazole-2-carboxamide] |
| < 100 | CCOc1cncc(-c2cnc(C(=O)N[C@@H](c3cc(NS(=O)(=O)C4CC4)ccn3)[C@H]3CCOC3)s2)n1 (single isomer, unassigned) [I-92] |
| < 100 | CCOc1cncc(-c2cnc(C(=O)N[C@H](CN3CCC(N(C)C)CC3)c3cc(NS(=O)(=O)C4CC4)ccn3)s2)n1 (single isomer, unassigned) [I-103] |
| 100 to 1000 | CCOc1cncc(-c2cnc(C(=O)N3CCC[C@H]3c3cncc(NS(=O)(=O)C4CC4)c3)s2)n1 [I-226, (S)—N-(5-(1-(5-(6-ethoxypyrazin-2-yl)thiazole-2-carbonyl)pyrrolidin-2-yl)pyridin-3-yl)cyclopropanesulfonamide] |
| < 100 | CCOc1cncc(-c2cnc(C(=O)NC(c3cc(NS(=O)(=O)C4CC4)ccn3)C3CCN(C)CC3)s2)n1 (stereo not shown) [I-146, N-((4-(cydopropanesulfonamido)pyridin-2-yl)(1-methylpiperidin-4-yl)methyl)-5-(6-ethoxypyrazin-2-yl)thiazole-2-carboxamide] |
| < 100 | CCOC[C@@H](NC(=O)c1ncc(-c2cncc(OCC)n2)s1)c1cc(NS(=O)(=O)C2CC2)ccn1 [I-97, (S)—N-(1-(4-(cyclopropanesulfonamido)pyridin-2-yl)-2-ethoxyethyl)-5-(6-ethoxypyrazin-2-yl)thiazole-2-carboxamide] |
| < 100 | CCOc1cncc(-c2ccc(C(=O)NCc3cc(NS(=O)(=O)C4CC4)cnn3)cc2)n1 [I-52, N-[(5-cyclopropanesulfonamidopyridazin-3-yl)methyl]-4-(6-ethoxypyrazin-2-yl) benzamide] |
| 100 to 1000 | CCOc1cncc(-c2cnc(C(=O)NC(C)(CCOC)c3cc(NS(=O)(=O)C4CC4)ccn3)s2)n1 (stereo not shown) [I-178] |
| 100 to 1000 | CCOc1cncc(-c2ccc(C(=O)N3CCC[C@@H]3c3cc(NS(=O)(=O)C4CC4)ccn3)c(F)c2)n1 [I-75, N-[2-[(2R)-1-[4-(6-ethoxypyrazin-2-yl)-2-fluorobenzoyl]pyrrolidin-2-yl]pyridin-4-yl]cyclopropanesulfonamide] |
| < 100 | CCOc1cncc(-c2cnc(C(=O)N[C@@H](CN3CCN(C(C)C)CC3)c3cc(NS(=O)(=O)C4CC4)ccn3)s2)n1 (single isomer, unassigned) [I-118] |
| < 100 | CCOc1cncc(-c2cnc(C(=O)N[C@H](CN3CC(F)C3)c3cc(NS(=O)(=O)C4CC4)ccn3)s2)n1 (single isomer, unassigned) [I-204] |
| < 100 | CCOc1cncc(-c2cnc(C(=O)N[C@@H](CCN3CC[C@H](F)C3)c3cc(NS(=O)(=O)C4CC4)ccn3)s2)n1 [I-129, N—((S)-1-(4-(cyclopropanesulfonamido)pyridin-2-yl)-3-((S)-3-fluoropyrrolidin-1-yl)propyl)-5-(6-ethoxypyrazin-2-yl)thiazole-2-carboxamide] |
| < 100 | CCOc1cncc(-c2ccc(C(=O)NCc3cc(NS(=O)(=O)C4CC4)cnn3)nc2)n1 [I-37, N-[(5-cyclopropanesulfonamidopyridazin-3-yl)methyl]-5-(6-ethoxypyrazin-2-yl)pyridine-2-carboxamide] |
| < 100 | CCOc1cncc(-c2cnc(C(=O)N[C@H](c3cc(NS(=O)(=O)C4CC4)ccn3)[C@H]3C[C@@H](N(C)C)C3)s2)n1 (single isomer, unassigned) [I-105] |
| < 100 | CCOc1cncc(-c2cnc(C(=O)N[C@H](CN3CCC3)c3cc(NS(=O)(=O)C4CC4)ccn3)s2)n1 (single isomer, unassigned) [I-222] |
| < 100 | CCOc1cncc(-c2cnc(C(=O)N[C@@H](CCN3CC[C@@H](F)C3)c3cc(NS(=O)(=O)C4CC4)ccn3)s2)n1 [I-128, N—((S)-1-(4-(cyclopropanesulfonamido)pyridin-2-yl)-3-((R)-3-fluoropyrrolidin-1-yl)propyl)-5-(6-ethoxypyrazin-2-yl)thiazole-2-carboxamide] |
| < 100 | CCOc1cncc(-c2cnc(C(=O)N[C@H](CN(C)C)c3cc(NS(=O)(=O)C4CC4)ccn3)s2)n1 (single isomer, unassigned) [I-233] |
